The subject of this test is childhood ALL patients with adverse cytogenetics harboring t(9; 22). Put plainly: Kaplan-Meier survival of childhood ALL patients by cytogenetic risk group. Type of test: in vivo, human. Particulars: five of the six cases with adverse cytogenetics.

Structures are written as SMILES.

Text: One hundred and seventy-three patients diagnosed with ALL and younger than 18 years were recruited from Sant Joan de Déu Hospital, Barcelona, Spain and from Cruces Hospital, Barakaldo, Spain between 1996 and 2012. Patients were all from Caucasian descent. […] Samples were extracted when patients were at complete remission or without cytogenetic aberrations affecting chromosomes where the polymorphisms are located. Clinical data were collected at diagnosis, including sex, age, leukemia type (T-cell, B-cell or mixed), WBC count, cytogenetic risk group and treatment protocol (Table 1). The different cytogenetic risk groups were classified according to the criteria from the Spanish Society of Pediatric Hematology and Oncology as follow: Presence of t(9; 22), t(4; 11) or MLL rearrangements at 11q23, or hipodiploidy (<44 chromosomes) was considered adverse group. Presence of 412; 21) or hiperdiploidy (>50 chromosomes) was considered favorable and all other cases were considered to belong to intermediate cytogenetic risk group. […] Every genotype was analyzed separately and moreover, in case of CNVs, null genotypes were tested vs. non-null genotypes, and in case of SNPs, heterozygotes were grouped together with either homozygote genotype.

Turning to `Cc1ccc(NC(=O)c2ccc(CN3CCN(C)CC3)cc2)cc1Nc1nccc(-c2cccnc2)n1` [imatinib], the treatment outcome is “successful”.

Values taken from patent publication US20210139993A1, “METHOD FOR PREDICTING SURVIVAL IN CHILDREN WITH ACUTE LYMPHOBLASTIC LEUKEMIA” (UNIVERSITAT AUTONOMA DE BARCELONA, priority 2017, published 2021).
